According to patent publication US20100203531A1, “PREDICTING RESPONSIVENESS TO TEMOZOLOMIDE” (priority 2007, published 2010):

What was measured:
Format in all cases: in vivo, human
[1] = test system: GBM12 xenograft; assay: Orthotopic intracranial xenograft survival, GBM12
Method: (§1) In vivo sensitivity of GBM lines to TMZ: To address whether MGMT methylation or polypeptide expression status are predictive of TMZ responsiveness, the effects of TMZ therapy on survival were evaluated in the panel of xenografts using an orthotopic therapy model. Mice with established intracranial xenografts were treated with 66 mg/kg TMZ or placebo daily for 5 days by oral gavage. This TMZ dosing regimen provides the equivalent dose-exposure to TMZ as the standard adjuvant TMZ dosing regimen for GBM patients of 200 mg/m^2×5 days. All mice were followed until reaching a moribund state, and the relative prolongation of survival following TMZ treatment was calculated for each line relative to placebo treatment (Table 1). […] Further analysis of the relationship between TMZ responsiveness and MGMT methylation status in 17 xenograft lines was conducted by comparing the distribution of median survival prolongation results for methylation-positive and methylation-negative groups of xenografts. From this analysis, MGMT methylation was modestly associated with increased TMZ sensitivity (FIG. 2, p=0.039, two-sample rank sum test). In a similar analysis of MGMT polypeptide expression levels, high levels of MGMT polypeptide expression were invariably associated with relative TMZ resistance, and the absence of MGMT polypeptide expression was associated with significant TMZ sensitivity (r=−0.73, p=0.005). […] While p53, PTEN and EGFR function have been linked to TMZ sensitivity in some models, no correlation between genetic alterations of these genes and TMZ responsiveness was observed.
(§2) Orthotopic model: Therapy evaluations were conducted using an orthotopic tumor model as described elsewhere (Sarkaria et al., Clin Cancer Res, 12:2264-2271 (2006), Giannini et al., Neuro-Oncology, 7:164-176, (2005)). Athymic nude mice (NCI, Frederick, Md.) with established intracranial tumors were randomized into groups of 8 to 10 mice each and treatment was initiated 2 weeks before mice were expected to become moribund. TMZ was purchased from the Mayo Clinic Pharmacy, suspended in Ora-plus (Paddock Laboratories, Minneapolis. […] Mice were observed daily and euthanized when moribund.
(§3) Statistical analysis: Survival distributions were estimated using the Kaplan-Meier method. The log rank test was used to compare survival across treatment groups. All GBM experiments were pooled and Classification and Regression Tree analysis (CART) was used to identify which CpG sites in the MS-PCR assay (CpG sites 78-82, 86-89) were predictive of overall survival in TMZ treated mice. The two-sample rank sum test was used to compare relative differences in survival relative to MGMT MS-PCR status or CpG89 methylation status. Spearman's correlation coefficient was used to assess the association of relative median survival and protein expression levels of MGMT relative to 13-actin.

[2] = test system: GBM36 xenograft; assay: Orthotopic intracranial xenograft survival, GBM36
Method: as §1
(§4) Orthotopic model: Therapy evaluations were conducted using an orthotopic tumor model as described elsewhere (Sarkaria et al., Clin Cancer Res, 12:2264-2271 (2006), Giannini et al., Neuro-Oncology, 7:164-176, (2005)). Athymic nude mice (NCI, Frederick, Md.) with established intracranial tumors were randomized into groups of 8 to 10 mice each and treatment was initiated 2 weeks before mice were expected to become moribund. TMZ was purchased from the Mayo Clinic Pharmacy, suspended in Ora-plus (Paddock Laboratories, Minneapolis. MN), and administered by oral gavage at 66 mg/kg for 5 days. Mice were observed daily and euthanized when moribund.
as §3, with “Spearman's correlation coefficient was used to assess the association of relative median survival and protein expression levels of MGMT relative to 13-actin.” left out

[3] = test system: GBM59 xenograft; assay: Orthotopic intracranial xenograft survival, GBM59
Method: (§5) In vivo sensitivity of GBM lines to TMZ: To address whether MGMT methylation or polypeptide expression status are predictive of TMZ responsiveness, the effects of TMZ therapy on survival were evaluated in the panel of xenografts using an orthotopic therapy model. Mice with established intracranial xenografts were treated with 66 mg/kg TMZ or placebo daily for 5 days by oral gavage. This TMZ dosing regimen provides the equivalent dose-exposure to TMZ as the standard adjuvant TMZ dosing regimen for GBM patients of 200 mg/m^2×5 days. All mice were followed until reaching a moribund state, and the relative prolongation of survival following TMZ treatment was calculated for each line relative to placebo treatment (Table 1). […] Further analysis of the relationship between TMZ responsiveness and MGMT methylation status in 17 xenograft lines was conducted by comparing the distribution of median survival prolongation results for methylation-positive and methylation-negative groups of xenografts. From this analysis, MGMT methylation was modestly associated with increased TMZ sensitivity (FIG. 2, p=0.039, two-sample rank sum test). […]

[4] = test system: GBM16 xenograft; assay: Orthotopic intracranial xenograft survival, GBM16; settings: for Survival Prolongation: median survival relative to placebo, 66 mg/kg oral for 5 days (Table 3), 66 mg/kg
Method: as §1, §4, §3

[5] = test system: GBM26 xenograft; assay: Orthotopic intracranial xenograft survival, GBM26; settings: for Survival Prolongation: median survival relative to placebo, 66 mg/kg oral for 5 days (Table 3), 66 mg/kg
Method: as §1, §4, §3

[6] = test system: GBM22 / GS22 xenograft; assay: Orthotopic intracranial xenograft survival, GBM22 (GS22)
Method: as §1, §4
as §3, with “Spearman's correlation coefficient was used to assess the association of relative median survival and protein expression levels of MGMT relative to 13-actin.” left out

[7] = test system: GBM46 xenograft; assay: Orthotopic intracranial xenograft survival, GBM46
Method: as §5

[8] = test system: GBM14 xenograft; assay: Orthotopic intracranial xenograft survival, GBM14
Method: as §1, §2, §3

[9] = test system: GBM28 / GS28 xenograft; assay: Orthotopic intracranial xenograft survival, GBM28 (GS28)
Method: as §1, §4
as §3, with “Spearman's correlation coefficient was used to assess the association of relative median survival and protein expression levels of MGMT relative to 13-actin.” left out

Cn1nnc2c(C(N)=O)ncn2c1=O [TMZ, Temozolomide]
Survival Prolongation ([1]; GBM12, median survival relative to placebo, 66 mg/kg oral for 5 days (Table 3)): 253%
Survival benefit ([1]; GBM12, prolongation of median survival relative to placebo, TMZ 66 mg/kg oral x5 days): 253%
Survival benefit ([1]; GBM12 generation 10, TMZ 120 mg/kg for 5 days, intracranial): 268%
Survival benefit ([1]; GBM12 generation 30, TMZ 66 mg/kg for 5 days, intracranial): 164%
TMZ median survival ([1]; GBM12 intracranial xenograft, nude mice, TMZ 66 mg/kg oral daily x5 days): 53
Temozolomide median survival ([1]; GBM12 intracranial, athymic nude mice, 66 mg/kg oral gavage for 5 days (Table 3)): 53
Survival Prolongation ([2]; GBM36, median survival relative to placebo, 66 mg/kg oral for 5 days (Table 3)): 82%
Survival benefit ([2]; GBM36, prolongation of median survival relative to placebo, TMZ 66 mg/kg oral x5 days): 82%
TMZ median survival ([2]; GBM36 intracranial xenograft, nude mice, TMZ 66 mg/kg oral daily x5 days): 214
Temozolomide median survival ([2]; GBM36 intracranial, athymic nude mice, 66 mg/kg oral gavage for 5 days (Table 3)): 229
Survival benefit ([3]; GBM59, prolongation of median survival relative to placebo, TMZ 66 mg/kg oral x5 days): 96%
TMZ median survival ([3]; GBM59 intracranial xenograft, nude mice, TMZ 66 mg/kg oral daily x5 days): 90
Survival Prolongation ([4]; GBM16): 579%
Survival Prolongation ([4]; GBM16, listed as Temozolomide): 579%
Survival benefit ([4]; GBM16, prolongation of median survival relative to placebo, TMZ 66 mg/kg oral x5 days): 579%
TMZ median survival ([4]; GBM16 intracranial xenograft, nude mice, TMZ 66 mg/kg oral daily x5 days): 300
Temozolomide median survival ([4]; GBM16 intracranial, athymic nude mice, 66 mg/kg oral gavage for 5 days (Table 3)): 326
Survival Prolongation ([5]; GBM26): 21%
Survival Prolongation ([5]; GBM26, listed as Temozolomide): 21%
Survival benefit ([5]; GBM26, prolongation of median survival relative to placebo, TMZ 66 mg/kg oral x5 days): 21%
TMZ median survival ([5]; GBM26 intracranial xenograft, nude mice, TMZ 66 mg/kg oral daily x5 days): 100
Temozolomide median survival ([5]; GBM26 intracranial, athymic nude mice, 66 mg/kg oral gavage for 5 days (Table 3)): 100
Survival benefit ([6]; GBM22, prolongation of median survival relative to placebo, TMZ 66 mg/kg oral x5 days): 260%
TMZ median survival ([6]; GBM22 intracranial xenograft, nude mice, TMZ 66 mg/kg oral daily x5 days): 124
Survival Prolongation ([6]; GS22, median survival relative to placebo, 66 mg/kg oral for 5 days (Table 3)): 260%
Temozolomide median survival ([6]; GS22 intracranial, athymic nude mice, 66 mg/kg oral gavage for 5 days (Table 3)): 155
Survival benefit ([7]; GBM46, prolongation of median survival relative to placebo, TMZ 66 mg/kg oral x5 days): 0%
TMZ median survival ([7]; GBM46 intracranial xenograft, nude mice, TMZ 66 mg/kg oral daily x5 days): 50
Survival Prolongation ([8]; GBM14, median survival relative to placebo, 66 mg/kg oral for 5 days (Table 3)): 558%
Survival benefit ([8]; GBM14, prolongation of median survival relative to placebo, TMZ 66 mg/kg oral x5 days): 558%
Survival benefit ([8]; GBM14 generation 21, TMZ 120 mg/kg for 5 days, intracranial): 148%
Survival benefit ([8]; GBM14 generation 33, TMZ 66 mg/kg for 5 days, intracranial): 421%
TMZ median survival ([8]; GBM14 intracranial xenograft, nude mice, TMZ 66 mg/kg oral daily x5 days): 154
Temozolomide median survival ([8]; GBM14 intracranial, athymic nude mice, 66 mg/kg oral gavage for 5 days (Table 3)): 217
Survival benefit ([9]; GBM28, prolongation of median survival relative to placebo, TMZ 66 mg/kg oral x5 days): 70%
TMZ median survival ([9]; GBM28 intracranial xenograft, nude mice, TMZ 66 mg/kg oral daily x5 days): 56
Survival Prolongation ([9]; GS28, median survival relative to placebo, 66 mg/kg oral for 5 days (Table 3)): 70%
Temozolomide median survival ([9]; GS28 intracranial, athymic nude mice, 66 mg/kg oral gavage for 5 days (Table 3)): 56
